# Assays:
# [1] = tested on: OVA-sensitized rat anaphylactic models; assay: Survival of OVA-sensitized BN rats after anaphylactic shock induced by OVA (Example 1); type: in vivo, BN/Crj rats (female); details: for Survival Rate: day 0 to 9, OVA challenge day 10
# Description: (§1) Using female BN/Crj rats of 7 weeks old, sensitization by OVA was carried out as described below.
# (§2) 10 mg/kg of OVA and 300 mg/kg of aluminum hydroxide (Alum) were intraperitoneally given (10 ml/kg) on the day (day 0) of administration. On day 3, 7 and 9 after the sensitization, blood samples were collected, the serum was separated and IgE concentration was determined. On day 10 after the sensitization, 60 mg/kg of OVA dissolved in physiological saline was given to the rats from the tail vein to cause anaphylactic shock. On the other hand, blood samples were collected at the jugular vein before and after the induction of the anaphylactic shock by OVA, and, after separation of the plasma, histamine level was determined.
# (§3) The drug suspended in 1% carboxymethylcellulose (CMC) was repeatedly given orally once a day from day 0 to 9. […] All animals in each group were weighed in the morning once a week and the drug was given upon the body weights as weighed. To the solvent control group was given a 1% CMC solution. And further, non-medicated groups and non-treated groups were prepared. No treatment was applied to the non-treated group. The test was carried out using 6 rats per group.
# (§4) The effect of the anilide compounds (I) on BN rats was evaluated from the survival rates of BN rats, the IgE levels in the sera and the histamine levels in the plasma before and after the induction of anaphylactic shock by OVA.
# [2] = tested on: IgE; assay: Serum IgE level of OVA-sensitized BN rats by sandwich-type ELISA (Example 1); type: in vivo, BN/Crj rats (female); details: day 9 after OVA sensitization, mean ± SD
# Description: as §1, §2, §3, §4
# The IgE level in sera was determined using the homemade sandwich-type ELISA system.
# [3] = tested on: histamine; assay: Plasma histamine level before and after induction of anaphylactic shock by OVA (Example 1); type: in vivo, BN/Crj rats (female); details: 10 mg/kg orally once a day, ± SD; for Histamine amount, after OVA challenge: day 10, after OVA challenge; for Histamine amount, before OVA challenge: day 10, before OVA challenge
# Description: as §1, §2, §3
# Then, the plasma histamine levels before and after the induction of the anaphylactic shock by OVA on day 10 after OVA sensitization were determined as a parameter for allergic reactions.
# [4] = tested on: autoimmune diseases such as articular rheumatism, systemic lupus erythematosus and the like; details: diseased animal models; cited from earlier work
# [5] = tested on: OVA-sensitized rat anaphylactic models; assay: Minimum effective dose of leflunomide: survival of OVA-sensitized BN rats after anaphylactic shock (Example 2); type: in vivo, BN/Crj rats (female); details: for Survival Rate: day 0 to 9
# Description: (§5) Using female BN/Crj rats of 7 weeks old, sensitization by OVA was carried out as described below. 10 mg/kg of OVA and 300 mg/kg of aluminum hydroxide (Alum) were intraperitoneally given on the day (day 0) of administration. Blood samples were collected on day 3, 5, 7 and 9 after the sensitization, the serum was separated and IgE concentration was determined. And, 60 mg/kg of the OVA dissolved in physiological saline was given to the rats from the tail vein to cause anaphylactic shock.
# (§6) The drug suspended in 1% carboxymethylcellulose (CMC) was repeatedly given orally once a day from day 0 to 9. […] All animals in each group were weighed in the morning once a week and the drug was given upon the body weights as weighed. A 1% CMC solution was given to the solvent control group. And further, non-treated group was prepared as control to which no treatment was applied. The test was carried out using 6 rats per group.
# [6] = tested on: IgE; assay: Minimum effective dose of leflunomide: serum IgE level of OVA-sensitized BN rats (Example 2); type: in vivo, BN/Crj rats (female); details: for Serum IgE amount: day 9 after OVA, ± SD
# Description: as §5, §6
# [7] = after administration; cited from earlier work
# [8] = tested on: mast cells; details: cited from earlier work
# [9] = tested on: mice; details: cited from earlier work
# [10] = leflunomide 0.5 mg/kg orally once a day
# [11] = leflunomide 1 mg/kg orally once a day
# [12] = leflunomide 2 mg/kg orally once a day
smiles,measurement,setting,value
"C/C(O)=C(\C#N)C(=O)Nc1ccc(C(F)(F)F)cc1 [Compound A, N-(4-trifluoromethylphenyl)-2-cyano-3-hydroxy-crotonamide]",Survival Rate,[1]; 10 mg/kg orally once a day,33%
same,IgE amount in sera,[2]; 10 mg/kg orally once a day,0.3 ± 0.0 µg/mL
same,"Histamine amount, after OVA challenge",[3],0.1 ± 0.0 µM
same,"Histamine amount, before OVA challenge",[3],0.2 ± 0.1 µM
same,effect on autoimmune diseases,[4],"have an effect on autoimmune diseases such as articular rheumatism, systemic lupus erythematosus and the like"
"Cc1cc(NC(=O)C(C#N)C(=O)C2CC2)ccc1C(F)(F)F (centres unmarked) [Compound B, 1-(3-methyl-4-trifluoromethylphenylcarbamoyl)-2-cyclopropyl-2-oxo-propionitrile]",Survival Rate,[1]; 10 mg/kg orally once a day,100%
same,IgE amount in sera,[2]; 10 mg/kg orally once a day,0.6 ± 0.5 µg/mL
same,"Histamine amount, after OVA challenge",[3],1.3 ± 1.8 µM
same,"Histamine amount, before OVA challenge",[3],0.4 ± 0.1 µM
"CN(C(=O)C(C#N)C(=O)C1CC1)c1ccc(Cl)cc1 (centres unmarked) [Compound C, 2-cyano-3-cyclopropyl-3-oxo-N-methyl-N-(4-chlorophenyl)-propionamide]",Survival Rate,[1]; 10 mg/kg orally once a day,100%
same,IgE amount in sera,[2]; 10 mg/kg orally once a day,0.5 ± 0.1 µg/mL
same,"Histamine amount, after OVA challenge",[3],0.1 ± 0.0 µM
same,"Histamine amount, before OVA challenge",[3],0.3 ± 0.2 µM
"N#Cc1ccc(NC(=O)C(C#N)C(=O)C2CC2)cc1 (centres unmarked) [Compound D, 2-cyano-3-cyclopropyl-3-oxo-(4-cyanophenyl) propionamide]",Survival Rate,[1]; 10 mg/kg orally once a day,100%
same,IgE amount in sera,[2]; 10 mg/kg orally once a day,0.6 ± 0.1 µg/mL
same,"Histamine amount, after OVA challenge",[3],0.6 ± 0.5 µM
same,"Histamine amount, before OVA challenge",[3],0.4 ± 0.2 µM
"C#CCCC(=O)C(C#N)C(=O)Nc1ccc(C(F)(F)F)cc1 (centres unmarked) [Compound E, 2-cyano-3-oxo-N-[4-(trifluoromethyl)phenyl]-6-heptinamide]",Survival Rate,[1]; 10 mg/kg orally once a day,100%
same,IgE amount in sera,[2]; 10 mg/kg orally once a day,0.4 ± 0.1 µg/mL
same,"Histamine amount, after OVA challenge",[3],0.1 ± 0.0 µM
same,"Histamine amount, before OVA challenge",[3],0.3 ± 0.1 µM
"Cc1oncc1C(=O)Nc1ccc(C(F)(F)F)cc1 [Leflunomide, 5-methylisoxazole-4-carboxylic acid-N-(4-trifluoromethyl) anilide]",survival without anaphylactic shock,[1]; 2 mg/kg,all animals survived without any anaphylactic shock
same,Survival Rate,[1]; 2 mg/kg orally once a day,100%
same,IgE amount in sera,[2]; 2 mg/kg orally once a day,0.4 ± 0.1 µg/mL
same,IgE amount in sera,"[2]; 2 mg/kg orally once a day, listed as leflunomide",0.4 µg/mL
same,Survival Rate,[5]; [10],0%
same,survival without anaphylactic shock,[5]; leflunomide 1 mg/kg,all animals survived without any anaphylactic shock
same,Survival Rate,[5]; [11],100%
same,survival without anaphylactic shock,[5]; leflunomide 2 mg/kg,all animals survived without any anaphylactic shock
same,Survival Rate,[5]; [12],100%
same,inhibition of increase in serum IgE level,[6]; after antigen sensitization,can inhibit an increase in the serum IgE level after the antigen sensitization
same,Serum IgE amount,[6]; [10],357.7 ± 119.0 µg/mL
same,Serum IgE amount,"[6]; leflunomide 0.5 mg/kg orally once a day, listed as leflunomide",357.7 µg/mL
same,Serum IgE amount,[6]; [11],0.8 ± 0.1 µg/mL
same,Serum IgE amount,"[6]; leflunomide 1 mg/kg orally once a day, listed as leflunomide",0.8 µg/mL
same,Serum IgE amount,[6]; [12],0.4 ± 0.1 µg/mL
same,Serum IgE amount,"[6]; leflunomide 2 mg/kg orally once a day, listed as leflunomide",0.4 µg/mL
same,conversion to pharmacologically active Compound A,[7],converted to pharmacologically active Compound A as defined above by rapid metabolism after administration
same,inhibitory effect on histamine-release from mast cells,[8],has an inhibitory effect on histamine-release from mast cells
same,effect on autoimmune diseases,[4],"have an effect on autoimmune diseases such as articular rheumatism, systemic lupus erythematosus and the like"
same,LD50 (p.o.),[9],445 mg/kg
C[C@]12C=CC(=O)C=C1CC[C@@H]1[C@@H]2[C@@H](O)C[C@@]2(C)[C@H]1CC[C@]2(O)C(=O)CO [Prednisolone],Survival Rate,[1]; 2 mg/kg orally once a day,0%
same,IgE amount in sera,[2]; 2 mg/kg orally once a day,148.1 ± 72.0 µg/mL
same,IgE amount in sera,"[2]; 2 mg/kg orally once a day, listed as prednisolone",148.1 µg/mL
